Measurements published in ChEMBL document CHEMBL5034015, “Structure-Based Optimization of 3-Phenyl-N-(2-(3-phenylureido)ethyl)thiophene-2-sulfonamide Derivatives as Selective Mcl-1 Inhibitors” (J Med Chem, 2021).
Activity calls are given as the source filed them.

Experiments:
[1] = biological target: T1, Induced myeloid leukemia cell differentiation protein Mcl-1 (Homo sapiens, UniProt Q07820); test: Binding affinity to full length human MCL1 expressed in Escherichia coli BL21 (DE3) assessed as inhibition constant preincubated for 30 mins followed by 5-FAM-QEDIIIINIARHLAQVGDSMD-RSIPPG tracer addition and measured after 20 mins by fluorescence polarization assay
T1 sequence (Q07820 whole entry): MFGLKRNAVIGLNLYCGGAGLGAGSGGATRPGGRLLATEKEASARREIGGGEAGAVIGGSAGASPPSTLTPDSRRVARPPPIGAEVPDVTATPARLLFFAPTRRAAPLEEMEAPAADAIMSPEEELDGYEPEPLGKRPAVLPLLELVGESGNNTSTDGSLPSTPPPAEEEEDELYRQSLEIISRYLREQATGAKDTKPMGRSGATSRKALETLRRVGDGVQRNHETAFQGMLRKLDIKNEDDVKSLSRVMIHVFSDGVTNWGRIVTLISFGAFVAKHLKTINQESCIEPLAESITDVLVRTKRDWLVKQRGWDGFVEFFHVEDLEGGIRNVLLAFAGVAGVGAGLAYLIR

HEK-293T = test: Cytotoxicity against HEK293T cells assessed as reduction in cell viability incubated for 48 hrs by CCK8 assay; settings: Homo sapiens
Bcl-2-like protein 1 [2] = biological target: T2, Bcl-2-like protein 1 (Homo sapiens, UniProt Q07817); test: Binding affinity to full length human Bcl-xl expressed in Escherichia coli BL21 (DE3) at up to 100 uM preincubated for 30 mins followed by 5-FAM-QEDIIIINIARHLAQVGDSMD-RSIPPG tracer addition and measured after 20 mins by fluorescence polarization assay; settings: dose microM <=100, time 50.0 min
T2 sequence (Q07817 whole entry): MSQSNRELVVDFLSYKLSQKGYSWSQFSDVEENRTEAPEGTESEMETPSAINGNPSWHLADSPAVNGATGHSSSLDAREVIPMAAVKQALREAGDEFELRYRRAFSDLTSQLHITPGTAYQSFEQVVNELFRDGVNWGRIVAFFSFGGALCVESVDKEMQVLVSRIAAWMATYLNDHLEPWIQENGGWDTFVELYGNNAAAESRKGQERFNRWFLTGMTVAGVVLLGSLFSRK

[3] = biological target: T3, Apoptosis regulator Bcl-2 (Homo sapiens, UniProt P10415); test: Binding affinity to full length human Bcl-2 expressed in Escherichia coli BL21 (DE3) at up to 100 uM preincubated for 30 mins followed by 5-FAM-QEDIIIINIARHLAQVGDSMD-RSIPPG tracer addition and measured after 20 mins by fluorescence polarization assay; settings: dose microM <=100, time 50.0 min
T3 sequence (P10415 whole entry): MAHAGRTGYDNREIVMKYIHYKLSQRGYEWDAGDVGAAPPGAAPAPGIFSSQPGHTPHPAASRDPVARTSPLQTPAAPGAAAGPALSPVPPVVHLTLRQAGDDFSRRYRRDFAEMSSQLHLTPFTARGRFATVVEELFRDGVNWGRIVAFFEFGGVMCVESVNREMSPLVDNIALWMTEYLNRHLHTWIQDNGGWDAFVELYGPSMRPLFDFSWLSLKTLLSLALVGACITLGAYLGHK

HeLa = test: cells; settings: Homo sapiens, 48 h
Description: Cytotoxicity against human HeLa cells assessed as inhibition of cell growth incubated for 48 hrs by CCK8 assay

HL-60 = test: cells; settings: Homo sapiens, HL-60, 48 h
Description: Cytotoxicity against human HL-60 cells assessed as inhibition of cell growth incubated for 48 hrs by CCK8 assay

RS4-11 = test: cells; settings: Homo sapiens, RS4-11, 48 h
Description: Cytotoxicity against human RS4-11 cells assessed as inhibition of cell growth incubated for 48 hrs by CCK8 assay

Bcl-2-like protein 1 [4] = biological target: T2, Bcl-2-like protein 1; test: Binding affinity to full length human Bcl-xl expressed in Escherichia coli BL21 (DE3) at 100 uM preincubated for 30 mins followed by 5-FAM-QEDIIIINIARHLAQVGDSMD-RSIPPG tracer addition and measured after 20 mins by fluorescence polarization assay relative to control; settings: time 50.0 min
[5] = biological target: T3, Apoptosis regulator Bcl-2; test: Binding affinity to full length human Bcl-2 expressed in Escherichia coli BL21 (DE3) at 100 uM preincubated for 30 mins followed by 5-FAM-QEDIIIINIARHLAQVGDSMD-RSIPPG tracer addition and measured after 20 mins by fluorescence polarization assay relative to control; settings: time 50.0 min
[6] = biological target: T1, Induced myeloid leukemia cell differentiation protein Mcl-1; test: Binding affinity to full length human MCL1 expressed in Escherichia coli BL21 (DE3) at 100 uM preincubated for 30 mins followed by 5-FAM-QEDIIIINIARHLAQVGDSMD-RSIPPG tracer addition and measured after 20 mins by fluorescence polarization assay relative to control; settings: time 50.0 min
[7] = biological target: T1, Induced myeloid leukemia cell differentiation protein Mcl-1; test: Binding affinity to full length human MCL1 expressed in Escherichia coli BL21 (DE3) at up to 100 uM preincubated for 30 mins followed by 5-FAM-QEDIIIINIARHLAQVGDSMD-RSIPPG tracer addition and measured after 20 mins by fluorescence polarization assay; settings: dose microM <=100, time 50.0 min

Compound | Ki [1] [µM] | IC50 (HEK-293T) [µM] | Activity (Bcl-2-like protein 1 [2]) | Activity [3] | IC50 (HeLa) [µM] | IC50 (HL-60) [µM] | IC50 (RS4-11) [µM] | inhibition (Bcl-2-like protein 1 [4]) [%] | inhibition [5] [%] | inhibition [6] [%] | Activity [7]
Cc1ccc(-c2ccsc2S(=O)(=O)NCCNC(=O)Nc2cccc([N+](=O)[O-])c2)c(Oc2ccc(O)c(O)c2)c1 | 13 | 6.8 | inactive | inactive | > 20 | 6 | 9.1 | – | – | – | –
COc1cccc(NC(=S)NCCNS(=O)(=O)c2sccc2-c2ccc(C)cc2Oc2ccc(O)c(O)c2)c1 | 6 | > 50 | inactive | inactive | > 50 | > 50 | > 20 | – | – | – | –
COc1ccc(Oc2ccccc2-c2ccsc2S(=O)(=O)N2CCN(C(=O)Nc3cc(C(F)(F)F)cc(C(F)(F)F)c3)CC2)cc1OC | – | > 20 | – | – | > 50 | > 20 | > 50 | 24 | 23 | 44 | –
Cc1ccc(-c2ccsc2S(=O)(=O)NCCNC(=S)Nc2cc(C(F)(F)F)cc(C(F)(F)F)c2)c(Oc2ccc(O)c(O)c2)c1 | 0.73 | 8 | inactive | inactive | 8 | 3.2 | 4.8 | – | – | – | –
O=C(Nc1ccc([N+](=O)[O-])cc1)N1CCN(S(=O)(=O)c2sccc2-c2ccccc2Oc2ccc(O)c(O)c2)CC1 | – | > 20 | – | – | > 20 | 4.9 | 14.3 | 29 | 33 | 63 | –
COc1ccc(Oc2ccccc2-c2ccsc2S(=O)(=O)N2CCN(C(=S)Nc3ccc([N+](=O)[O-])cc3)CC2)cc1OC | – | > 20 | – | – | > 50 | > 50 | > 50 | 18 | 16 | 33 | –
O=S(=O)(c1sccc1-c1ccccc1Oc1ccc(O)c(O)c1)N1CCN(C(=S)Nc2cc(C(F)(F)F)cc(C(F)(F)F)c2)CC1 | – | > 20 | – | – | > 20 | 2.2 | 7.3 | 12 | 20 | 72 | –
Cc1ccc(-c2ccsc2S(=O)(=O)NCCNC(=S)Nc2ccc([N+](=O)[O-])cc2)c(Oc2ccc(O)c(O)c2)c1 | 1.5 | 8.2 | inactive | inactive | 6.8 | 2.9 | 5.1 | – | – | – | –
COc1ccc(Oc2ccccc2-c2ccsc2S(=O)(=O)N2CCN(C(=S)Nc3ccc(Cl)cc3)CC2)cc1OC | – | > 20 | – | – | > 50 | > 50 | > 50 | 33 | 18 | 43 | –
O=C(Nc1ccc(F)cc1)N1CCN(S(=O)(=O)c2sccc2-c2ccccc2Oc2ccc(O)c(O)c2)CC1 | – | 15.5 | – | – | 14.8 | 8.1 | 6.8 | 32 | 33 | 95 | –
COc1cccc(NC(=O)NCCNS(=O)(=O)c2ccc(-c3ccccc3OCc3ccccc3)s2)c1 | 11 | > 20 | inactive | inactive | > 50 | 1.7 | > 20 | – | – | – | –
O=S(=O)(NCCNC(=S)Nc1ccc(Cl)cc1)c1ccc(-c2ccccc2OCc2ccccc2)s1 | 4.3 | 12.1 | inactive | inactive | 7 | > 50 | > 50 | – | – | – | –
COc1ccc(Oc2ccc(C(C)C)cc2-c2ccsc2S(=O)(=O)NCCNC(=S)Nc2cc(C(F)(F)F)cc(C(F)(F)F)c2)cc1OC | 12 | 10.2 | inactive | inactive | 8.3 | 6.9 | 5.5 | – | – | – | –
O=C(NCCNS(=O)(=O)c1ccc(-c2ccccc2Oc2ccc([N+](=O)[O-])c([N+](=O)[O-])c2)s1)Nc1ccc(Cl)cc1 | 5.9 | > 20 | inactive | inactive | > 20 | 8.1 | 6.7 | – | – | – | –
CC(C)c1ccc(Oc2ccc(O)c(O)c2)c(-c2ccsc2S(=O)(=O)NCCNC(=O)Nc2cc(Cl)cc(Cl)c2)c1 | 0.36 | > 10 | inactive | inactive | > 50 | 6.5 | 6.4 | – | – | – | –
COc1cccc(NC(=S)NCCNS(=O)(=O)c2ccc(-c3ccccc3Oc3ccc([N+](=O)[O-])cc3)s2)c1 | 13 | > 20 | inactive | inactive | > 50 | > 50 | > 50 | – | – | – | –
Cc1cc(C)cc(NC(=O)NCCNS(=O)(=O)c2ccc(-c3ccccc3Oc3ccc(N)cc3)s2)c1 | 1.6 | > 20 | inactive | inactive | > 20 | > 50 | > 20 | – | – | – | –
O=[N+]([O-])c1ccc(NC(=S)NCCNS(=O)(=O)c2ccc(-c3ccccc3O[C@H]3CC[C@H](O)CC3)s2)cc1 | – | 10.5 | inactive | inactive | 5.4 | 11.6 | 1.5 | – | – | – | inactive
O=C(NCCNS(=O)(=O)c1ccc(-c2ccccc2O[C@H]2CC[C@@H](O)CC2)s1)Nc1cc(C(F)(F)F)cc(C(F)(F)F)c1 | – | 14.1 | inactive | inactive | 14.1 | 3.1 | 9.3 | – | – | – | inactive
Cc1cc(C)cc(NC(=O)NCCNS(=O)(=O)c2ccc(-c3ccccc3Oc3ccc([N+](=O)[O-])c([N+](=O)[O-])c3)s2)c1 | – | > 50 | inactive | inactive | 12 | 9.1 | 3.6 | – | – | – | inactive
O=C(NCCNS(=O)(=O)c1ccc(-c2ccccc2O[C@H]2CC[C@@H](O)CC2)s1)Nc1ccc([N+](=O)[O-])cc1 | – | 8.6 | inactive | inactive | > 20 | > 20 | 12.4 | – | – | – | inactive
O=S(=O)(NCCNC(=S)Nc1cccc(Cl)c1)c1ccc(-c2ccccc2OCc2ccccc2)s1 | – | 10.2 | inactive | inactive | 8.4 | > 50 | > 50 | – | – | – | inactive
O=[N+]([O-])c1cccc(NC(=S)NCCNS(=O)(=O)c2ccc(-c3ccccc3OCc3cccc(O)c3)s2)c1 | – | 13.8 | inactive | inactive | 11.1 | 11.4 | 9.8 | – | – | – | inactive
COc1ccc(NC(=O)NCCNS(=O)(=O)c2sccc2-c2ccc(C)cc2Oc2ccc(O)c(O)c2)cc1 | – | > 20 | inactive | inactive | > 20 | 6.1 | 8.2 | – | – | – | inactive
COc1ccc(NC(=S)NCCNS(=O)(=O)c2sccc2-c2ccc(C)cc2Oc2ccc(O)c(O)c2)cc1 | – | > 20 | inactive | inactive | > 20 | 4.1 | 8.3 | – | – | – | inactive
COc1ccc(NC(=O)NCCNS(=O)(=O)c2ccc(-c3ccccc3Oc3ccc([N+](=O)[O-])cc3)s2)cc1 | 4.6 | > 20 | inactive | inactive | > 20 | > 50 | > 50 | – | – | – | –
O=C(NCCNS(=O)(=O)c1ccc(-c2ccccc2Oc2ccc([N+](=O)[O-])c([N+](=O)[O-])c2)s1)Nc1cc(C(F)(F)F)cc(C(F)(F)F)c1 | – | > 50 | inactive | inactive | > 50 | 1.9 | 2.4 | – | – | – | inactive
O=S(=O)(NCCNC(=S)Nc1cc(C(F)(F)F)cc(C(F)(F)F)c1)c1ccc(-c2ccccc2OCc2ccccc2)s1 | – | 8.5 | inactive | inactive | 4.7 | 2.1 | > 50 | – | – | – | inactive
